{
  "source": "patent US9309227B2",
  "about": "“N-biphenylmethylbenzimidazole modulators of PPARG” (The Scripps Research Institute, priority 2011, dated 2016)",
  "key": {"GST-PPARG-LBD": {"biological_target": "T1, GST-PPARG-LBD (Homo sapiens, UniProt P37231)", "T1 construct": "A mixture of 5 nM GST-PPARG-LBD; purchased Invitrogen", "T1 sequence (P37231 238-503 limits assumed)": "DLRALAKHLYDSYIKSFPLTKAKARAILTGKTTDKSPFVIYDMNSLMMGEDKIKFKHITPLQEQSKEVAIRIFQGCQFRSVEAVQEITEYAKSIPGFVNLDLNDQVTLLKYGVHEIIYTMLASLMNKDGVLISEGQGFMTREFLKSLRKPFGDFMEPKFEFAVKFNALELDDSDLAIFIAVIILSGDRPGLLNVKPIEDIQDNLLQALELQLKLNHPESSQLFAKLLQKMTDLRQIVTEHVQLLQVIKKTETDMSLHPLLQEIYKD", "assay": "Lanthascreen PPARG competitive binding assay (Invitrogen)", "conditions": "Table 3; read-out: IC50 (nM) Lantha", "method": "Lanthascreen PPARG Competitive Binding Assay (Invitrogen)\nThe assay was performed according to manufacturer protocol. A mixture of 5 nM GST-PPARG-LBD, 5 nM Tb-GST-antibody, […] Pan-PPAR Green, and serial dilutions of the experimental compound, beginning at 10 μM downwards, was added to wells of black 384-well low-volume plates (Greiner) to a total volume of 18 μL. All dilutions were made in TR-FRET assay buffer C. DMSO at 2% final concentration was used as a no-ligand control. Experiment was performed in triplicate, and incubated tier 2 hours in the dark prior to assay read in Perkin Elmer ViewLux ultra HTS microplate reader. FRET signal was measured by excitation at 340 nm and emission at 520 nm for fluorescein and […] for terbium. Fold change over DMSO was calculated using GraphPad Prism Software (La Jolla, Calif.) by calculating 520 nm/490 nm ratio. Graphs were plotted as fold change of FRET signal for compound treatment over DMSO-only control."}, "PPARG [1]": {"biological_target": "T2, PPARG (UniProt P37231)", "T2 construct": "PPRE % act 1 μM; other: 1 μM", "T2 sequence (P37231 1-505)": "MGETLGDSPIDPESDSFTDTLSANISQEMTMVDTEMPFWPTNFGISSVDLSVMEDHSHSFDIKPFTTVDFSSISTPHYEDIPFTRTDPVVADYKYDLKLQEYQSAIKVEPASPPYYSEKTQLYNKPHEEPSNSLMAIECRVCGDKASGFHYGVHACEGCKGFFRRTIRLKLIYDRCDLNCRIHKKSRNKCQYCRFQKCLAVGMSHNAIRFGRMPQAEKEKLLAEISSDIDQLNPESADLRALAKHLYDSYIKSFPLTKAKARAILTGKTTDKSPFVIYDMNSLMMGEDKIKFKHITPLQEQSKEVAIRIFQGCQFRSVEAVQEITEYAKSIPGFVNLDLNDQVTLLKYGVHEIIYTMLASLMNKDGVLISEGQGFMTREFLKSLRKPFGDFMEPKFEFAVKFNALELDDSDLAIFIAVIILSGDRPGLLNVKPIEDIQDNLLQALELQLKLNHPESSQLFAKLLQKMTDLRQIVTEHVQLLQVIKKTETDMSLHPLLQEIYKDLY", "assay": "Cell-based transactivation assay (PPRE-luciferase reporter co-transfected with PPARG in COS-1 cells)", "design": "species or system human or mouse", "method": "(§1) Cell-Based Transactivation Assay:\n(§2) PPRE is a DNA that contains a binding site for PPARG; thus PPRE is a PPAR response element, used herein as a promoter reporter. The binding site is a DR1 response element with the sequence AGGTCA repeated 3 times in tandem and then fused to a construct for luciferase.\n(§3) Thus, PPRE is the basis of the cell based transactivation assay described below. The plasmid DNA is co-transfected along with a plasmid for PPARG into COS-1 cells. After an overnight incubation, cells are treated with DMSO or compounds.\n(§4) Confluent COS-1 cells were transfected with 4.5 μg murine PPARg2-pSV Sport. or full-length human PPARg-pSport6, 4.5 μg 3×PPRE-luciferase reporter and 27 μL X-treme Gene 9 transfection reagent in serum-free opti-mem media (Gibco), followed by overnight incubation at 37° C., 5% CO2. Transfected cells were plated in white Perkin Elmer 384-well plates and incubated 4 hours. […] After 18 hour incubation, treated cells were developed with Brite Lite Plus (Perkin Elmer) and read in 384-well Luminescence Perkin Elmer En Vision Multilabel plate reader. Graphs were plotted in triplicate in GraphPad Prism Software as fold change of treated cells over DMSO control cells."}, "PPARG [2]": {"biological_target": "T3, PPARG (Homo sapiens, UniProt P37231)", "T3 sequence (P37231 204-505)": "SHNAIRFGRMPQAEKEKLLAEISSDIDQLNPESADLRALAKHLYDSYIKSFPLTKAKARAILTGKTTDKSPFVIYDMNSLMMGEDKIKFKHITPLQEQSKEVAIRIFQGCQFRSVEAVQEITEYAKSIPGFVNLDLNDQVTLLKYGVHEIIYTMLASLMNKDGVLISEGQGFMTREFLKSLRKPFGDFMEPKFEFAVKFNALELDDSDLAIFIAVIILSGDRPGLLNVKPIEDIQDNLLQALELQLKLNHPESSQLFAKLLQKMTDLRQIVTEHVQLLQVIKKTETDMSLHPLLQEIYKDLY", "assay": "Gal 4 assay (ED50 and % act)", "assay_type": "cell-based", "conditions": "for activation at 1 µM: read-out: GL 4% act 1 μM; for activation at 10 µM: read-out: GL 4% act 10 μM"}, "PPARG [3]": {"tested_on": "PPARG", "assay": "Cell-based transactivation assay (PPRE-luciferase reporter co-transfected with PPARG in COS-1 cells)", "design": "species or system human or mouse", "conditions": "COS-1 cells", "method": "as §1, §2, §3, §4"}},
  "data": [
    {"compound": "CC(C)c1cccc([C@H](C)NC(=O)c2ccc3c(c2)ncn3Cc2ccc(-c3ccccc3CO)cc2)c1", "note": "[Compound 21, (S)-1-((2′-(hydroxymethyl)biphenyl-4-yl)methyl)-N-(1-(3-isopropylphenyl)ethyl)-1H-benzo[d]imidazole-5-carboxamide]", "values": [
      {"measurement": "IC50", "setting": "GST-PPARG-LBD", "value": 6490, "unit": "nM"}
    ]},
    {"compound": "CC(C)c1cccc([C@H](C)NC(=O)c2ccc3c(c2)ncn3Cc2ccc(-c3ccccc3C(=O)O)cc2)c1", "note": "[Compound 23]", "values": [
      {"measurement": "PPRE % act 1 μM", "setting": "PPARG [1]; 1 μM", "value": "−10.26", "unit": "%"},
      {"measurement": "EC50", "setting": "PPARG [1]; Table 3", "value": 1.61, "unit": "nM"},
      {"measurement": "IC50", "setting": "GST-PPARG-LBD", "value": 683, "unit": "nM"},
      {"measurement": "activation at 1 µM", "setting": "PPARG [2]", "value": 12.9, "unit": "%"}
    ]},
    {"compound": "CC(C)c1cccc([C@H](C)NC(=O)c2ccc3c(c2)ncn3Cc2ccc(-c3cccnc3C(=O)O)cc2)c1", "note": "[Compound 24, (S)-3-(4-((5-(1-(3-isopropylphenyl)ethylcarbamoyl)-1H-benzo[d]imidazol-1-yl)methyl)phenyl)picolinic acid]", "values": [
      {"measurement": "IC50", "setting": "GST-PPARG-LBD", "value": 2130, "unit": "nM"}
    ]},
    {"compound": "CCOCCNC(=O)c1ccc2c(c1)ncn2Cc1ccc(-c2ccccc2C(=O)O)cc1", "note": "[Compound 16, 4′-((5-(2-ethoxyethylcarbamoyl)-1H-benzo[d]imidazol-1-yl)methyl)biphenyl-2-carboxylic acid]", "values": [
      {"measurement": "IC50", "setting": "GST-PPARG-LBD", "value": 9790, "unit": "nM"}
    ]},
    {"compound": "Cc1nc2cc(C(=O)N[C@@H](C)c3cccc(C(C)C)c3)ccc2n1Cc1ccc(-c2cccnc2C(=O)O)cc1", "note": "[Compound 29, (S)-3-(4-((5-(1-(3-isopropylphenyl)ethylcarbamoyl)-2-methyl-1H-benzo[d]imidazol-1-yl)methyl)phenyl)picolinic acid]", "values": [
      {"measurement": "IC50", "setting": "GST-PPARG-LBD", "value": 4800, "unit": "nM"}
    ]},
    {"compound": "Cc1nc2cc(C(=O)N[C@@H](C)c3cccc(C(C)C)c3)ccc2n1Cc1ccc(-c2ccccc2C(O)C(F)(F)F)cc1", "note": "(stereo partly drawn) [Compound 25, N—((S)-1-(3-isopropylphenyl)ethyl)-2-methyl-1-((2′-(2,2,2-trifluoro-1-hydroxyethyl)biphenyl-4-yl)methyl)-1H-benzo[d]imidazole-5-carboxamide]", "values": [
      {"measurement": "IC50", "setting": "GST-PPARG-LBD", "value": 5470, "unit": "nM"}
    ]},
    {"compound": "CC(C)CCC(C)NC(=O)c1ccc2ncn(Cc3ccc(-c4ccccc4C(=O)O)cc3)c2c1", "note": "(centres unmarked) [Compound 20]", "values": [
      {"measurement": "IC50", "setting": "GST-PPARG-LBD", "value": 2550, "unit": "nM"}
    ]},
    {"compound": "O=C(NCC1CC1)c1ccc2c(c1)ncn2Cc1ccc(-c2ccccc2C(=O)O)cc1", "note": "[Compound 17, 4′-((5 ((cyclopropylmethyl)carbamoyl)-1H-benzo[d]imidazol-1-yl)methyl)-[1,1′-biphenyl]-2-carboxylic acid]", "values": [
      {"measurement": "IC50", "setting": "GST-PPARG-LBD", "value": 22100, "unit": "nM"}
    ]},
    {"compound": "CC(C)c1cccc([C@H](C)NC(=O)c2ccc3c(c2)ncn3Cc2ccc(-c3ccccc3C(=O)O)cc2)c1", "note": "[Compound 22, (S)-4′-((5-(1-(3-isopropylphenyl)ethylcarbamoyl)-1H-benzo[d]imidazol-1-yl)methyl)biphenyl-2-carboxylic acid]", "values": [
      {"measurement": "IC50", "setting": "GST-PPARG-LBD", "value": 1830, "unit": "nM"}
    ]},
    {"compound": "MRL24 [reference compound]", "values": [
      {"measurement": "transactivation of the reporter, of rosiglitazone response", "setting": "PPARG [3]; relative to rosiglitazone", "value": "about 25%"}
    ]},
    {"compound": "COCCCNC(=O)c1ccc2c(c1)ncn2Cc1ccc(-c2ccccc2C(=O)O)cc1", "note": "[Compound 15, 4′-((5-(3-methoxypropylcarbamoyl)-1H-benzo[d]imidazol-1-yl)methyl)biphenyl-2-carboxylic acid]", "values": [
      {"measurement": "IC50", "setting": "GST-PPARG-LBD", "value": 15000, "unit": "nM"}
    ]},
    {"compound": "CC(C)CC(C)NC(=O)c1ccc2ncn(Cc3ccc(-c4ccccc4C(=O)O)cc3)c2c1", "note": "(centres unmarked) [Compound 19, 4′-((6-(4-methylpentan-2-ylcarbamoyl)-1H-benzo[d]imidazol-1-yl)methyl)biphenyl-2-carboxylic acid]", "values": [
      {"measurement": "IC50", "setting": "GST-PPARG-LBD", "value": 9.02, "unit": "nM"}
    ]},
    {"compound": "CC(C)CCNC(=O)c1ccc2c(c1)ncn2Cc1ccc(-c2ccccc2C(=O)O)cc1", "note": "[Compound 18, 4′-((5-(isopentylcarbamoyl)-1H-benzo[d]imidazol-1-yl)methyl)-[1,1′-biphenyl]-2-carboxylic acid]", "values": [
      {"measurement": "IC50", "setting": "GST-PPARG-LBD", "value": 2430, "unit": "nM"}
    ]},
    {"compound": "CC(C)CCC(C)NC(=O)c1ccc2c(c1)ncn2Cc1ccc(-c2ccccc2C(=O)O)cc1", "note": "(centres unmarked) [Compound 13, 4′-((5-(5-methylhexan-2-ylcarbamoyl)-1H-benzo[d]imidazol-1-yl)methyl)biphenyl-2-carboxylic acid]", "values": [
      {"measurement": "IC50", "setting": "GST-PPARG-LBD", "value": 26.7, "unit": "nM"},
      {"measurement": "activation at 1 µM", "setting": "PPARG [2]", "value": 22.5, "unit": "%"},
      {"measurement": "activation at 10 µM", "setting": "PPARG [2]", "value": 60.5, "unit": "%"}
    ]},
    {"compound": "CN(CCOc1ccc(CC2SC(=O)NC2=O)cc1)c1ccccn1", "note": "(centres unmarked) [rosiglitazone, reference compound]", "values": [
      {"measurement": "activation of the PPRE reporter", "setting": "PPARG [3]", "value": "about 5 fold"}
    ]},
    {"compound": "CC(C)CC(C)NC(=O)c1ccc2c(c1)ncn2Cc1ccc(-c2ccccc2C(=O)O)cc1", "note": "(centres unmarked) [Compound 14, 4′((5-((4-methylpentan-2-yl)carbamoyl)-1H-benzo[d]imidazol-1-yl)methyl)-[1,1′-biphenyl]-2-carboxylic acid]", "values": [
      {"measurement": "IC50", "setting": "GST-PPARG-LBD", "value": 102, "unit": "nM"},
      {"measurement": "activation at 1 µM", "setting": "PPARG [2]", "value": 7.71, "unit": "%"},
      {"measurement": "activation at 10 µM", "setting": "PPARG [2]", "value": 32.2, "unit": "%"}
    ]},
    {"compound": "CC(C)c1cccc([C@H](C)NC(=O)c2ccc3c(c2)ncn3Cc2ccc(-c3ccccc3C(O)C(F)(F)F)cc2)c1", "note": "(stereo partly drawn) [Compound 26, N—((S)-1-(3-isopropylphenyl)ethyl)-1-((2′-(2,2,2-trifluoro-1-hydroxyethyl)biphenyl-4-yl)methyl)-1H-benzo[d]imidazole-5-carboxamide]", "values": [
      {"measurement": "IC50", "setting": "GST-PPARG-LBD", "value": 15700, "unit": "nM"}
    ]},
    {"compound": "CC(C)c1cccc([C@H](C)NC(=O)c2ccc3c(c2)ncn3Cc2ccc(-c3ccccc3C(=O)O)nc2)c1", "note": "[Compound 27, (S)-2-(5-((5-((1-(3-isopropylphenyl)ethyl)carbamoyl)-1H-benzo[d]imidazol-1-yl)methyl)pyridin-2-yl)benzoic acid]", "values": [
      {"measurement": "IC50", "setting": "GST-PPARG-LBD", "value": 8740, "unit": "nM"}
    ]},
    {"compound": "COC(=O)c1ccccc1-c1ccc(Cn2cnc3cc(C(=O)N[C@@H](C)c4cccc(C(C)C)c4)ccc32)cn1", "note": "[Compound 28, (S)-methyl 2-(5-((5-((1-(3-isopropylphenyl)ethyl)carbamoyl)-1H-benzo[d]imidazol-1-yl)methyl)pyridin-2-yl)benzoate]", "values": [
      {"measurement": "IC50", "setting": "GST-PPARG-LBD", "value": 9070, "unit": "nM"}
    ]}
  ]
}
